Results taken from patent publication US8282944B2, “Metal complexes incorporated within biodegradable nanoparticles and their use” (The University of Akron, priority 2007, dated 2012).

Legend:
[1] = system: ovarian cancer cell line NuTu-19; assay: MTT test against ovarian cancer cell line NuTu-19; assay type: cell-based
Procedure: In one example, a silver(I) complex as represented in formula 23 has been tested for preliminary anticancer activity against the ovarian cancer cell line NuTu-19. Silver complex 23 was chosen because of its overall stability.
Cells were plated at 5000 cells per well in a 96-well plate. All tests were run in triplicate. Cells were allowed to incubate overnight after plating followed by the addition of a 50 μM solution of 23, cisplatin, and thiaether-RhCl3 dissolved in complete cell media. The cells were then incubated for 72 h followed by the addition of MTT dissolved in phosphate buffered saline (PBS) and incubated for another 4 h. A sodium dodecyl sulfate: 0.01M HCl (SDS) solution was then added and the cells were incubated overnight. The SDS solution is added to solubilize the blue formazan crystals that are formed by the reduction of MTT by living cells. The absorbance is then read on a microplate reader. Therefore, the higher the absorbance the more living cells present in cell colony.

[2] = system: A375 melanoma; assay: Anti-proliferative effects on A375 melanoma at 96 hours of growth; assay type: cell-based; settings: 0.5-25 μm, FIGS. 2 and 3
Procedure: The anti-proliferative effects of formula 23, cisplatin and carboplatin were investigated on A375 melanoma at 96 hours of growth and are shown in FIGS. 2 and 3. Percent control growth and percent standard error of the means (SEM) were conducted at various concentrations including 0.5 μm, 1.0 μm, 2.5 μm, 5.0 μm, 10 μm, 15 μm, 20 μm and […].

[3] = system: ACHN renal carcinoma; assay: Anti-proliferative effects on ACHN renal carcinoma at 96 hours of growth; assay type: cell-based; settings: 0.5-25 μm, FIGS. 4 and 5
Procedure: The anti-proliferative effects of formula 23, cisplatin and carboplatin were investigated on ACHN renal carcinoma at 96 hours of growth and are shown in FIGS. 4 and 5. Percent control growth and percent standard error of the means (SEM) were conducted at various concentrations including 0.5 μm, 1.0 μm, 2.5 μm, 5.0 μm, 10 μm, 15 μm, 20 μm and 25 μm.

[4] = system: HT1376 colon carcinoma; assay: Anti-proliferative effects on HT1376 colon carcinoma at 96 hours of growth; assay type: cell-based; settings: 0.5-25 μm, FIGS. 6 and 7
Procedure: The anti-proliferative effects of formula 23, cisplatin and carboplatin were investigated on HT1376 colon carcinoma at 96 hours of growth and are shown in FIGS. 6 and 7. Percent control growth and percent standard error of the means (SEM) were conducted at various concentrations including 0.5 μm, 1.0 μm, 2.5 μm, 5.0 μm, 10 μm, 15 μm, 20 μm and 25 μm.

[5] = system: rat models; assay: Toxicity in rat models via IV tail injection; assay type: in vivo
Text: In one embodiment, the R group is an alcohol. Suitable alcohols include ethanol and propanol. For formula 26, n has a value between 1 and 200.

Row | Structure (SMILES) | cell kill (MTT absorbance, FIG. 1) ([1]; NuTu-19, 50 μM, after 72 h of incubation) | anticancer activity ([1]; NuTu-19, tested for a period of 72 hours, preliminary) | percent control growth compared to cisplatin and carboplatin [2] | percent control growth compared to carboplatin [3] | percent control growth compared to cisplatin [3] | percent control growth compared to carboplatin and cisplatin [4] | toxicity [5]
1 | CC(=O)[O][Ag][CH]1N(C)C(Cl)=C(Cl)N1C [formula 23] | kills all cells | shown anticancer activity | best control growth | comparable control growth | better control growth | comparable control growth | 
2 | OC1(O)CN2C=CN3Cc4cccc(n4)CN4C=CN(C1)[CH]4[Ag][CH]1N4C=CN1CC(O)(O)CN1C=CN(Cc5cccc(n5)C4)[CH]1[Ag][CH]32 [formula 24] |  |  |  |  |  |  | severe toxicity
